From the supplement of paper PMC13380429

Key:
Settings in all cases: 72 h
Caco-2 [1] = experiment: cell viability relative to DMSO; higher = less toxic
HepG2 [2] = experiment: as above
Vero E6 [3] = experiment: as above
Calu-3 [4] = experiment: as above
Caco-2 [5] = experiment: relative viability EC50 (midpoint between 100% and the lowest measured viability); higher = less toxic
HepG2 [6] = experiment: as above
Vero E6 [7] = experiment: as above
Calu-3 [8] = experiment: as above
Caco-2 [9] = experiment: drug sensitivity score (DSS) for viability; higher = more toxic; extreme values may be limits of the assay
HepG2 [10] = experiment: as above
Vero E6 [11] = experiment: as above
Calu-3 [12] = experiment: as above
U2OS [13] = experiment: cell viability relative to DMSO; higher = less toxic
U2OS [14] = experiment: relative viability EC50 (midpoint between 100% and the lowest measured viability); higher = less toxic
U2OS [15] = experiment: drug sensitivity score (DSS) for viability; higher = more toxic; extreme values may be limits of the assay

SMILES | cell viability (Caco-2 [1]; 1 nM) [%] | cell viability (Caco-2 [1]; 10 nM) [%] | cell viability (Caco-2 [1]; 100 nM) [%] | cell viability (Caco-2 [1]; 1000 nM) [%] | cell viability (Caco-2 [1]; 10000 nM) [%] | cell viability (HepG2 [2]; 1 nM) [%] | cell viability (HepG2 [2]; 10 nM) [%] | cell viability (HepG2 [2]; 100 nM) [%] | cell viability (HepG2 [2]; 1000 nM) [%] | cell viability (HepG2 [2]; 10000 nM) [%] | cell viability (Vero E6 [3]; 1 nM) [%] | cell viability (Vero E6 [3]; 10 nM) [%] | cell viability (Vero E6 [3]; 100 nM) [%] | cell viability (Vero E6 [3]; 1000 nM) [%] | cell viability (Vero E6 [3]; 10000 nM) [%] | cell viability (Calu-3 [4]; 1 nM) [%] | cell viability (Calu-3 [4]; 10 nM) [%] | cell viability (Calu-3 [4]; 100 nM) [%] | cell viability (Calu-3 [4]; 1000 nM) [%] | cell viability (Calu-3 [4]; 10000 nM) [%] | relative viability EC50 (Caco-2 [5]) [µM] | relative viability EC50 (HepG2 [6]) [µM] | relative viability EC50 (Vero E6 [7]) [µM] | relative viability EC50 (Calu-3 [8]) [µM] | drug sensitivity score (Caco-2 [9]) | drug sensitivity score (HepG2 [10]) | drug sensitivity score (Vero E6 [11]) | drug sensitivity score (Calu-3 [12]) | cell viability (U2OS [13]; 1 nM) [%] | cell viability (U2OS [13]; 10 nM) [%] | cell viability (U2OS [13]; 100 nM) [%] | cell viability (U2OS [13]; 1000 nM) [%] | cell viability (U2OS [13]; 10000 nM) [%] | relative viability EC50 (U2OS [14]) [µM] | drug sensitivity score (U2OS [15])
CCCC(C)NC(=O)c1ccc(Cl)c(Cl)c1 (stereo not given) | 120 | 98 | 104 | 117 | 94.5 | 97.1 | 104 | 92.8 | 98 | 98.6 | 104 | 101 | 99.3 | 103 | 99.8 | 103 | 77.1 | 99 | 77.4 | 104 | > 10 | > 10 | > 10 | > 10 | 0 | 0 | 0 | 0 | – | – | – | – | – | – | –
CCc1cncnc1N1CCN(Cc2nc3cc(C(F)(F)F)ccc3[nH]2)CC1 | 93.2 | 109 | 99 | 98.5 | 61.8 | 97.6 | 103 | 103 | 92.4 | 34.8 | 99.5 | 104 | 101 | 101 | 89.9 | 80.8 | 101 | 84.2 | 89.9 | 88.2 | – | 2.21 | > 10 | > 10 | 2.1 | 4.8 | 0 | 1.1 | 96.6 | 101 | 98.5 | 97.7 | 79.9 | > 10 | 0.9
COc1ccc(CC2NCCc3c2[nH]c2ccc(C)cc32)c(Cl)c1OC (stereo not given) | 94.8 | 98.2 | 105 | 102 | 87.9 | 103 | 90.2 | 108 | 104 | 91.7 | 99 | 93.2 | 101 | 89.1 | 76.5 | 101 | 95.9 | 92.9 | 102 | 66.8 | > 10 | > 10 | > 10 | – | 0 | 0 | 2.1 | 1.3 | 95.4 | 101 | 98.3 | 101 | 94 | > 10 | 0
C[C@@H](CN1CCC(n2c(=O)[nH]c3cc(Cl)ccc32)CC1)NC(=O)c1ccc2ccccc2c1 | 93.8 | 105 | 101 | 97.4 | 79.5 | 99.9 | 102 | 85.6 | 94.1 | 82.9 | – | – | – | – | – | 102 | 99.7 | 96.2 | 94.2 | 82.1 | > 10 | > 10 | – | > 10 | 1 | 0.9 | – | 0.7 | 106 | 102 | 100 | 98.1 | 91.1 | > 10 | 0
C[C@H](NC(=O)c1sccc1OCc1ccc(Cl)cc1)c1ccccc1 | 97.9 | 103 | 104 | 97 | 67.7 | 104 | 108 | 105 | 103 | 75.8 | 113 | 107 | 108 | 100 | 96.8 | 102 | 96 | 99.6 | 107 | 98.1 | – | > 10 | > 10 | > 10 | 1.9 | 0.7 | 0 | 0 | 92.3 | 103 | 98.7 | 99.9 | 88.6 | > 10 | 0
O=C(Nc1ccc(CN2CCOCC2)cc1)c1ccc(-c2cccc(Cl)c2)o1 | 110 | 102 | 99.9 | 104 | 95.7 | 107 | 104 | 97.8 | 93.7 | 99.5 | 100 | 100 | 102 | 99.4 | 102 | 98.3 | 95.4 | 97.3 | 97.8 | 91 | > 10 | > 10 | > 10 | > 10 | 0 | 0 | 0 | 0 | – | – | – | – | – | – | –
Cc1noc(C)c1-c1ccc(-c2cc(C(N)=O)c(NC(N)=O)s2)c(O[C@H]2CCNC2)c1 [AZD3264] | 95.7 | 100 | 100 | 103 | 106 | 114 | 97.6 | 99.8 | 101 | 99.4 | 102 | 104 | 105 | 97.4 | 103 | 97.4 | 95.7 | 103 | 101 | 105 | > 10 | > 10 | > 10 | > 10 | 0 | 0 | 0 | 0 | – | – | – | – | – | – | –
O[C@@H](CN1CCNCC1)Cn1c2ccc(Br)cc2c2cc(Br)ccc21 [BAX-channel-blocker] | 100 | 104 | 93.6 | 87.7 | 10.4 | 91.2 | 102 | 90.4 | 95 | 0.2 | 101 | 96.5 | 96.1 | 92.9 | 0.2 | – | – | – | – | – | 2.06 | 2.78 | 2.59 | – | 7 | 6.3 | 6.6 | – | 97.6 | 102 | 97.8 | 93.9 | 3.8 | 2.66 | 6.3
O=C(O)c1ccc2cc(-c3ccc(O)c(C45CC6CC(CC(C6)C4)C5)c3)ccc2c1 [CD-437] | 99.4 | 92.8 | 89.4 | 56.2 | 36.8 | 108 | 95.4 | 105 | 48.8 | 29.3 | 107 | 99.1 | 104 | 87.6 | 54.7 | 92.7 | 101 | 93.3 | 85.7 | 24.4 | 0.436 | 0.685 | – | 1.79 | 9.5 | 9.9 | 4.2 | 6.5 | 101 | 100 | 98.7 | 84.7 | 9.8 | 1.88 | 7.5
Fc1ccccc1CNCc1ccc(-c2ccnc3[nH]ccc23)cc1 [OXA-06] | 91.3 | 103 | 91.5 | 101 | 90.2 | 105 | 90.4 | 108 | 107 | 86.9 | 103 | 95.6 | 97.3 | 97.6 | 85.4 | 111 | 106 | 100 | 139 | 139 | > 10 | > 10 | > 10 | > 10 | 0 | 0 | 0.4 | 0 | 98.6 | 102 | 96.8 | 97.2 | 69.8 | – | 1.8
C[C@H](Nc1cc2c(-c3ccc4c(c3)OCO4)noc2cn1)c1ccccc1 [TC-S-7005] | 96.5 | 105 | 107 | 101 | 97.9 | 106 | 120 | 100 | 91.6 | 99 | 97.4 | 96.2 | 98.8 | 90.5 | 108 | 106 | 98 | 105 | 97.2 | 107 | > 10 | > 10 | > 10 | > 10 | 0 | 0 | 0 | 0 | – | – | – | – | – | – | –
Oc1c(CN2CCCC2)cc(COCc2ccccc2)c2cccnc12 [UC-112] | 92.2 | 95.9 | 99.1 | 73 | 3.6 | 97.5 | 94.5 | 96.2 | 81.6 | 16.6 | 97.8 | 95.3 | 94 | 51.7 | 6.8 | 97.7 | 94.8 | 108 | 107 | 69.5 | 1.46 | 1.66 | 0.927 | – | 9.4 | 7.5 | 10.9 | 1 | 97.6 | 91.1 | 94 | 88.9 | 43.1 | 1.76 | 4.9
O=C(COc1ccc(C(=O)c2ccccc2)cc1)NC1CCN(Cc2ccccc2)CC1 [adiporon] | 95.2 | 92.7 | 99 | 91.6 | 91.9 | 92.1 | 94.3 | 94.8 | 107 | 85.4 | 97.1 | 98.2 | 93.8 | 96.9 | 101 | – | – | – | – | – | > 10 | > 10 | > 10 | – | 0 | 0 | 0 | – | 96.4 | 93.2 | 100 | 98.1 | 95.7 | > 10 | 0
Cc1ccc(NC(=O)c2ccc(CN3CC[C@H](N(C)C)C3)c(C(F)(F)F)c2)cc1Nc1nccc(-c2cncnc2)n1 [bafetinib] | 97.1 | 108 | 92.9 | 104 | 79 | 98.4 | 89.2 | 91 | 85.1 | 19.5 | 96.7 | 98.1 | 96.5 | 99.7 | 76.1 | 98.7 | 107 | 98.8 | 99.9 | 74.8 | > 10 | 1.8 | > 10 | – | 0.5 | 6.9 | 0.9 | 1 | 99.9 | 101 | 103 | 99.4 | 79 | > 10 | 0.7
O=S(=O)(O)c1cc(I)c(O)c2ncccc12 [chiniofon] | 107 | 101 | 95.4 | 104 | 94.8 | 111 | 102 | 104 | 102 | 99 | – | – | – | – | – | 98.2 | 102 | 94.6 | 95.9 | 93.6 | > 10 | > 10 | – | > 10 | 0 | 0 | – | 0 | – | – | – | – | – | – | –
